One molecule from patent publication US20110027293A1, “METHODS AND COMPOSITIONS FOR THE INHIBITION OF VIRAL INFECTION BY TARGETING INTRACELLULAR TRAFFICKING” (priority 2008, published 2011) can be followed below.

Test [1] deals with MoMLV. Nature of the test: GFP expression of cells infected with MoMLV construct with and without EHNA. The following applies: relative to infection in the absence of EHNA; FIG. 15A vs 15C. It is filed as cell-based, Moloney murine leukemia virus (MoMLV). The protocol:
(§1) The levels of infection are based on the inhibition of GFP expression, which was determined by infection of cells by MoMLV and HCV viral constructs that included cloned GFP. To determine the consequences of dynein inhibition on the viral life cycle, the expression of viral genes was correlated to the expression (or loss of expression) of GFP. Pictured are cells infected with MoMLV and Hepatitis C with and without EHNA-induced dynein inhibition. Brightness is an indication of GFP expression.
(§2) ATPase activity was inhibited using an anti-dynein small organic molecule (erythro-9-(2-hydroxy-3-nonyl)adenine; EHNA) in another set of experiments. EHNA was obtained from A. G. Scientific and dissolved in Dubelco's Modified Eagle's Medium (DMEM). The solution was added to several sets of treated cells with final concentrations of 0.1 μM, 0.2 μM, 0.5 μM, and 1 μM (FIG. 14).
(§3) To determine the consequences of the loss of cytoplasmic dynein motor activity on the viral life cycle, we cloned the green fluorescent protein (GFP) gene into the viral genomes and assessed GFP expression upon loss of cytoplasmic dynein motor activity (FIG. 15).

Test [2] has as its system hepatitis C virus (HCV). Nature of the test: GFP expression of cells infected with HCV construct with and without EHNA. The settings on record: relative to infection in the absence of EHNA; FIG. 15B vs 15D. It counts as cell-based. The protocol:
as §1, §2, §3

Turning to `CCCCCC[C@@H]([C@@H](C)O)n1cnc2c(N)ncnc21` (racemic) [EHNA, erythro-9-(2-hydroxy-3-nonyl)adenine], the “infection by MoMLV (inhibition of GFP expression)” value in test [1] is on record as “inhibits infection”. Moreover, the “infection by hepatitis C virus (inhibition of GFP expression)” value in test [2] was “inhibits infection”.
